Measured values published in publication PMC6753678, “Fueling Open Innovation for Malaria Transmission-Blocking Drugs: Hundreds of Molecules Targeting Early Parasite Mosquito Stages” (Frontiers in Microbiology, 2019).

System: P. berghei ookinete development
Conditions: for % inhibition, Replicate A / % inhibition, Replicate B: primary screen at 1 μM

| Structure (SMILES) | % inhibition, Replicate A | % inhibition, Replicate B | IC50 (read-out: Pb Ookinete development assay IC50, dose response confirmation) |
| --- | --- | --- | --- |
| Cn1ncc2ccc(Nc3nccc(-c4ccc5c(c4)c(N)nn5C)n3)cc21 [TCMDC-137049] | 55.92% | 51.61% |  |
| Cc1nc2ccccc2c(O)c1-c1ccc(Cl)cc1 [TCMDC-137172] | 27.10% | 52.76% |  |
| Cc1nc2nc(N)nc(N)c2c(C)c1Cc1ccccc1I.Cl [TCMDC-137243] | 8.94% | 52.96% |  |
| CCc1cc2c3c(N)nc(N)nc3ccc2n1C(CC)CC [TCMDC-137309] | 48.79% | 56.84% |  |
| CC(C)n1c(C(C)(C)C)cc2c3c(N)nc(N)nc3ccc21 [TCMDC-137311] | 95.58% | 90.85% | 634 nM |
| CNCCN(C)C(=O)Oc1c(Cl)c(C)nc(C)c1-c1ccc(Oc2ccc(OC(F)(F)F)cc2)cc1.Cl [TCMDC-137384] | 31.42% | 56.87% |  |
| Cc1[nH]c(C)c(-c2ccc(Oc3cccc(Cl)c3)cc2)c(=O)c1Cl [TCMDC-137395] | 115.83% | 119.38% |  |
| Cc1[nH]c(C)c(-c2ccc(S(=O)(=O)c3ccc(Cl)cc3)cc2)c(=O)c1Cl [TCMDC-137412] | 78.54% | 115.81% |  |
| Cc1nc(C)c(-c2ccc(C(=O)c3ccccc3)cc2)c(O)c1Br [TCMDC-137419] | 112.31% | 126.66% |  |
| CCN1CCN(CCCNc2c3ccc(Cl)cc3nc3ccc(OC)cc23)CC1.Cl [TCMDC-137586] | 79.33% | 90.04% |  |
| CC=Cc1cc(Cc2c[nH]c(=N)[nH]c2=N)cc(CCC)c1OC [TCMDC-137634] | 54.07% | 40.96% |  |
| Cl.N=C(N)NN=Cc1cc2ccccc2c2ccccc12 [TCMDC-137671] | 63.22% | 44.77% |  |
| CCCCCc1cnc2nc(N)nc(N)c2c1C.Cl [TCMDC-137717] | 60.03% | 27.06% |  |
| CC(CO)(CO)NCc1cc2ccc3ccsc3c2c2ccccc12.CS(=O)(=O)O [TCMDC-137753] | 48.80% | 68.87% |  |
| CC(C)(C)c1ccc(Cc2cccc3nc(N)nc(N)c23)cc1 [TCMDC-137821] | 61.67% | 24.79% |  |
| CC(C)n1ncc2c3c(N)nc(N)nc3ccc21 [TCMDC-137866] | 87.47% | 39.71% |  |
| Cl.N=C(N)NN=Cc1c2ccccc2c(Cl)c2c(Cl)cccc12 [TCMDC-137898] | 66.37% | 24.36% |  |
| Cc1nc(N)nc(N)c1CCCOc1ccccc1Cl [TCMDC-137929] | 38.99% | 55.23% |  |
| CCCc1cc2c3c(N)nc(N)nc3ccc2n1CC [TCMDC-137946] | 61.03% | 76.85% |  |
| CCCC(CC)n1ccc2c3c(N)nc(N)nc3ccc21.CS(=O)(=O)O (stereo not shown) [TCMDC-137948] | 49.24% | 73.56% |  |
| Cc1cc2c3c(N)nc(N)nc3ccc2n1C [TCMDC-137957] | 66.89% | 77.62% |  |
| Cl.Nc1nc(N)c2c(ccc3nn(Cc4cccnc4)cc32)n1 [TCMDC-137968] | 30.53% | 62.42% |  |
| COc1ccc(O)c(Cc2cnc3nc(N)nc(N)c3c2C)c1.O=C(O)C(F)(F)F [TCMDC-137998] | 11.48% | 55.44% |  |
| COc1ccc2nc3cc(Cl)ccc3c(Nc3ccc(C(=O)O)cc3)c2c1.Cl [TCMDC-138029] | 92.30% | 90.70% |  |

| Structure (SMILES) | % inhibition, Replicate A | % inhibition, Replicate B | IC50 (read-out: Pb Ookinete development assay IC50, dose response confirmation) |
| --- | --- | --- | --- |
| C=CCc1cc(Cc2cnc(N)nc2N)cc(CCC)c1OC [TCMDC-138039] | 8.79% | 53.34% |  |
| CCOC(=O)c1cc2c(CCN3C(=O)c4ccccc4C3=O)cn(C)c2cc1-c1ccncc1 [TCMDC-138099] | 54.94% | 51.34% |  |
| CCC[C@@H]([C@@H](CC1CCCCC1)C(=O)N[C@H](C(=O)Nc1nccs1)C(C)(C)SC)N(O)C=O [TCMDC-138113] | 7.94% | 61.12% |  |
| COc1cc(Cc2cnc(N)nc2N)ccc1OCc1ccc(-c2csnn2)cc1 [TCMDC-138683] | 55.66% | 28.96% |  |
| COc1cc(-c2cnc(N)c(-c3nc4ccccc4[nH]3)c2)cc(OC)c1OC.Cl [TCMDC-138793] | 57.35% | 34.54% |  |
| COc1ccc2c(=O)c(-c3ccc(OC(F)(F)F)cc3)c(C)[nH]c2c1 [TCMDC-138811] | 34.78% | 69.73% |  |
| COc1ccc2nccc(C(=O)NC3CCC(CCN4CCc5cc(C#N)ccc5C4)CC3)c2c1.Cl (stereo not shown) [TCMDC-139240] | 53.92% | 18.69% |  |
| Cc1cc(-c2ccc(NC(=O)Nc3ccc4nccc(N5CCN(C)CC5)c4c3)cc2C)cc(C)n1.Cl [TCMDC-139355] | 53.36% | 17.60% |  |
| CC(=O)c1c[nH]c2ccc(/C=C/C(=O)NC3CCC(CCN4CCc5ccc(C#N)cc5CC4)CC3)cc12.Cl (stereo not shown) [TCMDC-139781] | 63.32% | 35.61% |  |
| O=c1cc(NCCCN(Cc2cc3c(Cl)cc(Cl)cc3[nH]2)Cc2cc3c(Cl)cc(Cl)cc3[nH]2)[nH]c2ccccc12 [TCMDC-139849] | 64.98% | 20.87% |  |
| O=C(NCCCN1CCN(c2cccc(Cl)c2)CC1)c1ccc(-c2nc3cc(Cl)c(Cl)cc3[nH]2)cc1 [TCMDC-140077] | 61.66% | 14.32% |  |
| CN(C)CCCOc1ccccc1CN1CC[C@H](NC(=O)c2ccc(Cl)c(Cl)c2)C1.O=C(O)C(F)(F)F [TCMDC-140310] | -10.45% | 74.47% |  |
| COc1cc(NCCCNC(=O)c2cc3c(Cl)cc(Cl)cc3[nH]2)nc2ccccc12 [TCMDC-140360] | 57.79% | 39.97% |  |
| Cc1cc(CNCCCCCCNCc2ccc(Cl)cc2)ccc1O [TCMDC-140414] | 6.85% | 50.55% |  |
| COc1ccc2nccc(NC(=O)N3CCC(NCc4cc5ccccc5[nH]4)CC3)c2n1.O=C(O)C(=O)O [TCMDC-140671] | 55.02% | 18.69% |  |
| Cc1c(CNCCCNc2cc(=O)c3ccccc3[nH]2)sc(-c2ccco2)c1Br.Cl [TCMDC-141065] | 4.54% | 52.38% |  |
| O=C(N[C@H]1CCN(CCc2ccc(O[C@H]3CCNC3)cc2)C1)c1ccc(Cl)c(Cl)c1.O=C(O)C(F)(F)F [TCMDC-141066] | 57.79% | 22.51% |  |
| COc1ccc2nccc([C@@H](O)CN3CCC(NC(=O)Cc4cccc5c(Br)cccc45)CC3)c2c1 [TCMDC-141111] | 36.89% | 51.52% |  |
| CCCCCCNC(=O)C1Cc2c([nH]c3ccc(Br)cc23)C2(CCN(CCc3ccccc3)CC2)N1 (stereo not shown) [TCMDC-141182] | 15.53% | 59.10% |  |
| CCN(CC)CCN(Cc1ccc(-c2ccc(C(F)(F)F)cc2)cc1)C(=O)Cn1cc(CCCCc2cccc(F)c2F)c(=O)c2ccccc21.O=C(O)C(O)C(O)C(=O)O [TCMDC-141340] | 60.00% | 20.87% |  |
| CC(=O)Nc1cccc(CN(Cc2ccc(-c3ccc(CNCc4cccnc4)cn3)cc2)C(=O)Cc2cccnc2)c1.O=C(O)C(F)(F)F [TCMDC-141604] | 63.32% | 20.87% |  |
| C=Cc1cc(OC)c2c(c1)c(=O)oc1c2cc(OC)c2c(O)ccc([C@H]3O[C@H]([C@H](C)O)[C@H](O)[C@H]3O)c21 [TCMDC-141972] | 89.48% | 109.41% |  |
| O=[N+]([O-])c1ccccc1C=NN=c1c2c([nH]c3ccccc13)CCCC2 [TCMDC-142202] | 51.15% | 30.70% |  |
| CCN(CC)CCCC(C)Nc1c(-c2ccc(C)cc2)cnc2ccccc12 (stereo not shown) [TCMDC-142264] | 53.92% | 8.32% |  |
